The values that follow come from PMC9953967, “Discovery of Novel Bioactive Tanshinones and Carnosol Analogues against Breast Cancer” (Cancers, 2023).

Series [1] relates to several cell models of breast cancer. Set-up: method as in PMID 26241873. Conditions: read-out: EC50 antiproliferative activity; cited from earlier work.
For series [2], the system named is MDA-MB231. Set-up: method as in PMID 26241873. Conditions: cited from earlier work.
The subject of series [3] is SUM149. The series can be described thus: CellTiterGlo luminescent cell viability assay, SUM149. Background: In ATP-based viability assays light output follows the ATP content of the culture.
Procedure: (§1) A cell proliferation assay was performed using the CellTiterGlo (CTG, Promega Corp., Madison, WI, USA) luminescent cell viability assay kit. MDA-MB231 cells were seeded into 96-well plates at concentrations experimentally determined to ensure logarithmic growth during the duration of the experiment and to prevent adverse effects on cell growth by DMSO exposure. The plates were incubated 12 h before treatment. […] The final concentration of DMSO was 0.3% (v/v) in each well. The positive control used was staurosporine (1 μM) and a toxic quinolone generated inhouse, as kill-all controls, and the negative control used was cholesterol. […] The plates were incubated for 72 h and then quenched with CTG at 50 μL per well at RT. Plates were then incubated at RT for 20 min and centrifuged at 1000 rpm for 1 min. Luminescence was read on a CLARIOstar Plus plate reader (BMG LabTech, Ortenberg, Germany). The cell viability assay was also performed in the non-neoplastic cell line BJ, which was incubated with compounds, as mentioned in cell viability assay (CTG). The mean luminescence of each experimental treatment group was normalized as a percentage of the mean intensity of untreated controls. EC50 values were calculated from dose-response curve-fitting via non-linear regression using GraphPad Prism 9.0 (GraphPad Software, San Diego, CA, USA) (Figure S1).
Series [4] has as its system MDA-MB231. The series can be described thus: CellTiterGlo luminescent cell viability assay, MDA-MB231.
Procedure: as §1
The subject of series [5] is MCF07. The series can be described thus: CellTiterGlo luminescent cell viability assay, MCF07.
Procedure: as §1
The nature of series [6]: CellTiterGlo cell viability assay, non-neoplastic cell line BJ. Conditions: human, BJ cells (non-neoplastic, non-tumorigenic cell line), Cytotoxicity IC50 BJ, 72 h incubation, CellTiter-Glo, mean ± SD.
Procedure: as §1
Series [7] concerns T47D. Nature of the series: CellTiterGlo luminescent cell viability assay, T47D. Conditions: Homo sapiens, 72 h.
Procedure: as §1
Series [8] is described as follows: in vitro. Conditions: human, Cytotoxicity IC50 BJ.
Procedure: as §1
The test system of series [9] is MCF-7. More on the design: method as in PMID 30793595. Conditions: read-out: Antiproliferative activity, sulforhodamine B assay, MCF-7; cited from earlier work.
Series [10] concerns MDA-MB231. More on the design: method as in PMID 30793595. Conditions: read-out: Antiproliferative activity, sulforhodamine B assay, MDA-MB231; cited from earlier work.
In series [11] the test system is HBL-100 and T-47D. Set-up: method as in PMID 30840453. Conditions: two breast cancer cell lines HBL-100 and T-47D, SRB assay; cited from earlier work.
The subject of series [12] is non-tumorigenic cell line BJ. The series can be described thus: CellTiterGlo cell viability assay, non-neoplastic cell line BJ. Conditions: read-out: Cytotoxicity IC50 BJ, 72 h incubation, CellTiter-Glo, mean ± SD.
Procedure: as §1
Series [13] in a line: Ferric Reducing Antioxidant Power (FRAP) assay. Conditions: compounds at 100 μM; positive control ascorbic acid 1 mM. How it is done: An antioxidant evaluation of the compounds was performed using the Ferric Reducing Antioxidant Power (FRAP) Assay Colorimetric Kit (ab234626, Abcam, Cambridge, UK) following the manufacturers’ instructions. Briefly, FRAP reagents were mixed with compounds at 100 μM in 96-well plates, and then reacted for 10 min at 37 °C in the dark. Ascorbic acid was provided as the positive control (1mM). After incubation, the absorbance was read using a microplate reader (CLARIOstar Plus, BMG LabTech, Ortenberg, Germany) at 594 nm. FRAP [19] was quantified using a reagent calibration curve (Y = 0.039X + 0.002, R^2 = 0.9978) and calculated as nmol Ferrous equivalents.

In series [14] the test system is MDA-MB231. The series can be described thus: Propidium iodide (PI) assay with Hoechst counterstain. Conditions: MDA-MB231, 48 h, 25 μM. The format is cell-based, human. On the procedure: Propidium iodide (PI) assay was performed to complement the viability assay. The assay was conducted with MDA-MB231 cancer cell models seeded in 48-well plates (Clear, Corning#3548) and cultured for 12 h, then treated for 48 h. Cells were fixed with cold methanol, and stained (0.4% PI, Sigma-Aldrich, Co., St. Louis, MO, USA). Fluorescence was measured and analyzed using Cytation 1 Image Reader (BioTek, Winooski, VT, USA). Cell viability was calculated/plotted as the percentage of surviving cells after treatment relative to the vehicle. For qualitative analysis and visualization, doubling staining was performed using Hoechst dye to stain nuclei.

Series [15] relates to SUM149.
Procedure: as §1
Series [16] has as its system non-tumorigenic cell line BJ. Conditions: human, 72 h.
Procedure: as §1
The subject of series [17] is MCF07.
Procedure: as §1
The subject of series [18] is T47D. Conditions: human, 72 h.
Procedure: as §1
Where [19] appears, read: Homo sapiens, SUM149, 72 h, read-out: Cytotoxicity IC50 SUM149.
[20] abbreviates: Homo sapiens, MDA-MB-231, 72 h, read-out: Cytotoxicity IC50 MDA-MB231, 72 h incubation, CellTiter-Glo, mean ± SD.
Where [21] appears, read: Homo sapiens, 72 h, read-out: Cytotoxicity IC50 MCF07, 72 h incubation, CellTiter-Glo, mean ± SD.
The mark [22] stands for this setting: read-out: Cytotoxicity IC50 T47D, 72 h incubation, CellTiter-Glo, mean ± SD.
Where [23] appears, read: read-out: Cytotoxicity IC50 MDA-MB231, 72 h incubation, CellTiter-Glo, mean ± SD.

For orientation: EC50 means the concentration giving half of the maximal effect. What is called GI50 is the concentration that inhibits growth by half.

Like-named read-outs stand apart in the source and are kept apart here.

On to `CC(C)c1cc2c(cc1O)[C@@]1(C)CCCC(C)(C)[C@@H]1CC2` [Compound 1, ferruginol], for which the EC50 in series [1] is less than 50 µM. Also, the “Inhibition of cell cycle progression at the G2/M phase” value in [2] was 19%. Moreover, in series [2] (positive control 43%, negative control 48.36%), the “Cell cycle arrest at G0/G1” value is given as 50.76%. The IC50 in series [3] (setting [19]) was more than 50 µM; in series [4] (setting [20]), 8.3 ± 1.4 µM; in series [5] (setting [21]), 19 ± 1.5 µM; in series [7] (setting [22]), more than 100 µM. For the same compound, the IC50 at 72 h in series [6] is more than 50 µM.

In series [8], `CC(C)c1cc2c(cc1O)[C@@]1(C)CCC[C@@](C)(CN)[C@@H]1CC2` [Compound 2, 12-hydroxydehydroabietylamine] returned an IC50 at 72 h of 75 ± 6.2 µM. The IC50 in series [3] (setting [19]) was 4.4 ± 0.3 µM; in [4] (setting [20]) it was 5.1 ± 0.6 µM; in series [5] (setting [21]), 10 ± 1.5 µM; in series [7] (setting [22]), more than 50 µM.

As to `CC(C)c1cc2c(c(O)c1O)[C@@]13CCCC(C)(C)[C@@H]1C[C@@H]2OC3=O` [Compound 4, carnosol], in [1], the EC50 was less than 50 µM.

With `COC(=O)[C@]1(C)CCC[C@]2(C)c3cc(O)c(C(C)C)cc3CC[C@@H]12` [Compound 5, Methyl 12-hydroxyabieta-8,11,13-trien-18-oate], the IC50 was 5.9 µM in series [9] and 18.6 µM in series [10]. The GI50 in [11] was 9.7 to 19 µM.

As to `CC(C)c1cc2c(cc1O)[C@@]1(C)CCC[C@@](C)(CN3C(=O)c4ccccc4C3=O)[C@@H]1CC2` [Compound 6, 18-(phthalimid-2-yl)ferruginol], the IC50 in series [3] (Homo sapiens, SUM149, 72 h, read-out: Cytotoxicity IC50 SUM149, 72 h incubation, CellTiter-Glo, mean ± SD) came to 4.45 ± 0.2 µM; in [3] (read-out: Cytotoxicity IC50 SUM149, 72 h incubation, CellTiter-Glo, mean ± SD) it was 4.4 ± 0.2 µM; in series [4] (setting [20]), 8.22 ± 0.47 µM; in [4] (setting [23]), 8.2 ± 0.5 µM; in series [5] (Homo sapiens, 72 h, read-out: Cytotoxicity IC50 MCF07) it was 13 ± 0.6 µM; in series [12], 74.8 ± 5.3 µM. In addition, the IC50 in series [7] (read-out: Cytotoxicity IC50 T47D) is 29.2 ± 1.5 µM. This compound also showed an IC50 at 72 h in series [6] of 74.8 ± 5.3 µM.

For the compound `COC(=O)[C@]1(C)CCC[C@]2(C)C3=C(C=C(C(C)C)C(=O)C3=O)CC[C@@H]12` [Compound 7, Methyl 11,12-Dioxo-abieta-8,13-dien-18-oate], in [13], the “Antioxidant potential (FRAP)” value is on record as “significant antioxidant potential”. Further, the IC50 in series [3] (setting [19]) was determined as 1.3 ± 0.6 µM; in series [4] (setting [20]), 3.95 ± 0.8 µM; in series [4] (setting [23]), 3.9 ± 0.8 µM; in series [5] (setting [21]) it was 8.29 ± 0.93 µM; in series [5] (read-out: Cytotoxicity IC50 MCF07, 72 h incubation, CellTiter-Glo, mean ± SD), 8.3 ± 0.9 µM; in series [12], 56.5 ± 6.1 µM. The IC50 in series [7] (setting [22]) came out at 14.1 ± 0.5 µM. In addition, in series [6], the IC50 at 72 h turned out to be 56.5 ± 6.1 µM.

Consider `CC(C)C1=CC2=C(C(=O)C1=O)[C@@]1(C)CCC[C@@](C)(CN3C(=O)c4ccccc4C3=O)[C@@H]1CC2` [Compound 8, 11,12-Dioxo-N,N-(phthaloyl)dehydroabietylamine], for which the IC50 in series [3] (setting [19]) worked out at 1.5 ± 0.4 µM; in series [4] (setting [20]) it was 2.8 ± 0.4 µM; in [5] (setting [21]), 2.3 ± 1.1 µM; in [12], 35.4 ± 5 µM; in series [7] (setting [22]), 18.7 ± 0.3 µM. The compound further came in with an IC50 at 72 h in series [6] of 35.4 ± 5 µM. Also, in series [14], the “Dose-dependent cell death (PI staining)” value was “clearly indicates this dependency”.

In the case of `COC(=O)[C@]1(C)CCC[C@]2(C)c3c(cc(C(C)C)c(O)c3O)CC[C@@H]12` [Compound 9, Methyl 11,12-Dihydroxy-dehydroabietate], the IC50 at 72 h in [8] was found to be 57.6 ± 3 µM. The “Antioxidant potential (FRAP)” value in series [13] is reported as “significant antioxidant potential”. Moreover, the IC50 in series [9] was 2.8 µM; in series [16], 57.6 ± 3 µM; in series [3] (setting [19]), more than 50 µM; in [10], 2.7 µM; in [4] (setting [20]) it was 9.4 ± 0.4 µM; in series [5] (setting [21]), more than 50 µM. For the same compound, the IC50 in [7] (setting [22]) came out at 14.4 ± 0.6 µM. For the same compound, the “Cytotoxicity IC50 SUM149” value in series [15] was “removed the activity”. In addition, the “Cytotoxicity IC50 MCF07” value in series [17] was “removed the activity”.

For the compound `CC(C)c1cc2c(c(O)c1O)[C@@]1(C)CCC[C@@](C)(CN3C(=O)c4ccccc4C3=O)[C@@H]1CC2` [Compound 10, 11,12-Dihydroxy-N,N-(phthaloyl)dehydroabietylamine], the IC50 at 72 h in series [8] worked out at 32.5 ± 5 µM. Further, the IC50 in series [18] was determined as 8.2 ± 0.4 µM; in series [16], 32.5 ± 5 µM; in series [3] (setting [19]) it was 1.8 ± 0.2 µM; in [4] (setting [20]), 2.8 ± 0.2 µM; in series [5] (setting [21]) it was 4.6 ± 0.6 µM; in series [7] (setting [22]), 8.17 ± 0.44 µM.

For the compound `CC(C)c1ccc2c(c1)CC[C@H]1[C@](C)(CN)CCC[C@]21C` [dehydroabietylamine], the EC50 in series [1] was less than 50 µM.
